The values below come from PubChem BioAssay AID180 (DTP/NCI, 2004).

The test system of the assay is BDF1 mice, Adenocarcinoma 755 s.c., tumor weight T/C. The assay can be described thus: NCI In Vivo Anticancer Drug Screen. Data for tumor model Adenocarcinoma 755 (subcutaneous) in B6D2F1 (BDF1) mice. Particulars: endpoint: mean tumor weight, higher = larger tumour. Put shortly: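 Compound activity was tested in mice carrying transplanted tumors. Survival or tumor size was measured, and each value is the treated-group measurement divided by that of the vehicle-treated control group (T/C).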

The mark [1] stands for this setting: dose: 25.0 mg/kg/injection, schedule: Q01DX011 (ip), vehicle: carboxymethylcellulose (CMC).
Where [2] appears, read: dose: 50.0 mg/kg/injection, schedule: Q01DX011 (ip), vehicle: carboxymethylcellulose (CMC).
[3] abbreviates: dose: 90.0 mg/kg/injection, schedule: Q01DX011 (ip), vehicle: carboxymethylcellulose (CMC).
The mark [4] stands for this setting: dose: 25.0 mg/kg/injection, schedule: Q01DX011 (ip), vehicle: methylcellulose (MC).
Where [5] appears, read: dose: 3.1 mg/kg/injection, schedule: Q01DX011 (ip), vehicle: methylcellulose (MC).
Where [6] appears, read: dose: 6.25 mg/kg/injection, schedule: Q01DX011 (ip), vehicle: methylcellulose (MC).

“And” between values parts separate entries of the source, which are not always exact repeats. Identical values can stand only once.

For the compound `C[C@H]1C(=O)O[C@@H]2CCN3CC=C(COC(=O)[C@](C)(O)[C@@]1(C)O)[C@H]23`, the T/C is, setting by setting: (dose: 12.5 mg/kg/injection, schedule: Q#A X022 (ip), vehicle: carboxymethylcellulose (CMC)) 70 % of control; (dose: 12.5 mg/kg/injection, schedule: Q#A X022 (oral), vehicle: carboxymethylcellulose (CMC)) 65 % of control; (dose: 22.5 mg/kg/injection, schedule: Q01DX011 (ip), vehicle: carboxymethylcellulose (CMC)) 45 % of control; under setting [1], 74 % of control; (dose: 25.0 mg/kg/injection, schedule: Q#A X022 (ip), vehicle: carboxymethylcellulose (CMC)) 69 % of control; (dose: 25.0 mg/kg/injection, schedule: Q#A X022 (oral), vehicle: carboxymethylcellulose (CMC)) 44 % of control. Besides, the T/C was 34 % of control (dose: 45.0 mg/kg/injection, schedule: Q01DX011 (ip), vehicle: carboxymethylcellulose (CMC)); 61 % of control under setting [2]; 36 % of control (dose: 50.0 mg/kg/injection, schedule: Q01DX011 (oral), vehicle: saline); 22 % of control (dose: 50.0 mg/kg/injection, schedule: Q#A X022 (ip), vehicle: carboxymethylcellulose (CMC)); 7 % of control (dose: 50.0 mg/kg/injection, schedule: Q#A X022 (oral), vehicle: carboxymethylcellulose (CMC)); 101 % of control (dose: 75.0 mg/kg/injection, schedule: Q03DX004 (ip), vehicle: carboxymethylcellulose (CMC)). Moreover, the T/C reads like this: under setting [3], 15 % of control; (dose: 100.0 mg/kg/injection, schedule: Q01DX011 (ip), vehicle: carboxymethylcellulose (CMC)) 42 % of control; (dose: 100.0 mg/kg/injection, schedule: Q01DX011 (oral), vehicle: carboxymethylcellulose (CMC)) 38 % of control; (dose: 100.0 mg/kg/injection, schedule: Q01DX011 (oral), vehicle: saline) 27 % of control; (dose: 100.0 mg/kg/injection, schedule: Q#A X022 (ip), vehicle: carboxymethylcellulose (CMC)) 15 % of control; (dose: 100.0 mg/kg/injection, schedule: Q#A X022 (oral), vehicle: carboxymethylcellulose (CMC)) 7 % of control. The T/C (dose: 150.0 mg/kg/injection, schedule: Q03DX004 (ip), vehicle: carboxymethylcellulose (CMC)) is 46 % of control; the T/C (dose: 180.0 mg/kg/injection, schedule: Q01DX011 (ip), vehicle: carboxymethylcellulose (CMC)) is 7 % of control; the T/C (dose: 180.0 mg/kg/injection, schedule: Q01DX011 (ip), vehicle: methylcellulose (MC)) is 24 % of control; the T/C (dose: 200.0 mg/kg/injection, schedule: Q01DX011 (ip), vehicle: carboxymethylcellulose (CMC)) was 13 % of control; the T/C (dose: 200.0 mg/kg/injection, schedule: Q01DX011 (oral), vehicle: carboxymethylcellulose (CMC)) is 14 % of control; the T/C (dose: 200.0 mg/kg/injection, schedule: Q01DX011 (oral), vehicle: saline) is 4 % of control. In addition, the T/C is, setting by setting: (dose: 300.0 mg/kg/injection, schedule: Q03DX004 (ip), vehicle: carboxymethylcellulose (CMC)) 24 % of control; (dose: 400.0 mg/kg/injection, schedule: Q01DX011 (oral), vehicle: carboxymethylcellulose (CMC)) 6 % of control; (dose: 400.0 mg/kg/injection, schedule: Q01DX011 (oral), vehicle: saline) 5 % of control; (dose: 600.0 mg/kg/injection, schedule: Q03DX004 (ip), vehicle: carboxymethylcellulose (CMC)) 16 % of control.
With `O=c1[nH]cnc2n[nH]nc12`, the T/C by setting is: (dose: 125.0 mg/kg/injection, schedule: Q01DX011 (oral), vehicle: methylcellulose (MC)) 55 % of control; (dose: 250.0 mg/kg/injection, schedule: Q02DX006 (ip), vehicle: methylcellulose (MC)) 5 % of control; (dose: 250.0 mg/kg/injection, schedule: Q03DX004 (ip), vehicle: methylcellulose (MC)) 21 % of control.
Regarding `CCCCn1cnc2c(SCc3ccccc3)nc(N)nc21`, the T/C was 31 % of control (dose: 7.81 mg/kg/injection, schedule: Q01DX011 (ip), vehicle: methylcellulose (MC)); 2 % of control (dose: 15.62 mg/kg/injection, schedule: Q01DX011 (ip), vehicle: methylcellulose (MC)); 1 % of control (dose: 31.25 mg/kg/injection, schedule: Q01DX011 (ip), vehicle: methylcellulose (MC)).
Consider `Fc1cccc(CSc2ncnc3c2ncn3C2CCCS2)c1` (stereo unspecified), for which the T/C runs as follows: under setting [4], 61 % of control; (dose: 75.0 mg/kg/injection, schedule: Q01DX011 (ip), vehicle: methylcellulose (MC)) 62 % of control; (dose: 225.0 mg/kg/injection, schedule: Q01DX011 (ip), vehicle: methylcellulose (MC)) 32 % of control.
Regarding `CCCn1cnc2c(SC(C)C)nc(N)nc21`, the T/C by setting is: under setting [5], 16 % of control; under setting [6], 2 % of control.
For the compound `CCCCOC(=O)C1(N)CCCC1`, the T/C reads like this: (dose: 3.12 mg/kg/injection, schedule: Q01DX011 (ip), vehicle: carboxymethylcellulose (CMC)) 75 % of control; (dose: 6.25 mg/kg/injection, schedule: Q01DX011 (ip), vehicle: carboxymethylcellulose (CMC)) 80 % of control; (dose: 12.5 mg/kg/injection, schedule: Q01DX011 (ip), vehicle: carboxymethylcellulose (CMC)) 66 % of control; under setting [1], 29 % of control and 35 % of control; under setting [2], 12 % of control.
Consider `OC1CC([CH2][Hg][Cl])OC([CH2][Hg][Cl])C1` (stereo unspecified), for which the T/C is, setting by setting: (dose: 6.0 mg/kg/injection, schedule: Q01DX011 (ip), vehicle: carboxymethylcellulose (CMC)) 95 % of control; (dose: 12.0 mg/kg/injection, schedule: Q01DX011 (ip), vehicle: carboxymethylcellulose (CMC)) 109 % of control; under setting [1], 28 % of control and 36 % of control; under setting [2], 92 % of control.
Take `N#CCCn1cnc2c(=S)nc[nH]c21`: the T/C (dose: 14.0 mg/kg/injection, schedule: Q01DX011 (ip), vehicle: other) was 89 % of control.
Take `Cn1c(=O)c2c(nc(N/N=C/c3cccc(Br)c3)n2C)n(C)c1=O`: the T/C (dose: 30.0 mg/kg/injection, schedule: Q01DX011 (ip), vehicle: carboxymethylcellulose (CMC)) was 93 % of control; the T/C (dose: 60.0 mg/kg/injection, schedule: Q01DX011 (ip), vehicle: carboxymethylcellulose (CMC)) was 111 % of control; the T/C (dose: 120.0 mg/kg/injection, schedule: Q01DX011 (ip), vehicle: carboxymethylcellulose (CMC)) is 88 % of control.
As to `C[C@]12CC[C@H](O)C[C@@H]1CC[C@@H]1[C@@H]2C(=O)C[C@]2(C)C3=CC(=O)O[C@H]3C[C@@H]12`, the T/C is 73 % of control (dose: 5.0 mg/kg/injection, schedule: Q01DX011 (sc), vehicle: steriod suspending solution); 69 % of control (dose: 10.0 mg/kg/injection, schedule: Q01DX011 (sc), vehicle: steriod suspending solution); 74 % of control (dose: 20.0 mg/kg/injection, schedule: Q01DX011 (sc), vehicle: steriod suspending solution); 77 % of control (dose: 40.0 mg/kg/injection, schedule: Q01DX011 (sc), vehicle: steriod suspending solution).
Consider `CSc1ncc(Br)c(SC)n1`, for which the T/C is, setting by setting: (dose: 31.0 mg/kg/injection, schedule: Q01DX011 (ip), vehicle: methylcellulose (MC)) 102 % of control; (dose: 62.0 mg/kg/injection, schedule: Q01DX011 (ip), vehicle: methylcellulose (MC)) 93 % of control.
With `c1cncc(CSc2ncnc3nc[nH]c23)c1`, the T/C runs as follows: (dose: 0.78 mg/kg/injection, schedule: Q01DX011 (ip), vehicle: methylcellulose (MC)) 79 % of control; (dose: 1.55 mg/kg/injection, schedule: Q01DX011 (ip), vehicle: methylcellulose (MC)) 40 % of control; under setting [5], 61 % of control; under setting [6], 8 % of control and 20 % of control; (dose: 12.5 mg/kg/injection, schedule: Q01DX011 (ip), vehicle: methylcellulose (MC)) 4 % of control; under setting [4], 2 % of control. Also, the T/C (dose: 50.0 mg/kg/injection, schedule: Q01DX011 (ip), vehicle: methylcellulose (MC)) was 2 % of control.
Take `Cn1cnc(=S)c2[nH]cnc21`: where the note is “dose: 300.0 mg/kg/injection, schedule: Q01DX011 (ip), vehicle: carboxymethylcellulose (CMC)”, the T/C was 61 % of control.
For `O=C1C=CC(=O)O1` (tested in a mixture with another compound), the T/C runs as follows: (dose: 11.0 mg/kg/injection, schedule: Q01DX011 (ip), vehicle: carboxymethylcellulose (CMC)) 39 % of control and 57 % of control; (dose: 11.0 mg/kg/injection, schedule: Q01DX011 (ip), vehicle: saline) 56 % of control; (dose: 22.0 mg/kg/injection, schedule: Q01DX011 (ip), vehicle: carboxymethylcellulose (CMC)) 18 % of control and 38 % of control; (dose: 22.0 mg/kg/injection, schedule: Q01DX011 (ip), vehicle: saline) 31 % of control; under setting [3], 11 % of control and 32 % of control.
